Test results: the NIST ThermoML archive (doi:10.1016/j.jct.2018.04.011)

Columns and labels:
[1] = Crystal; for Normal melting temperature: DTA
[2] = Molar enthalpy of transition or fusion; details: Crystal; DSC
[3] = molar heat capacity at constant pressure; details: 101.33 kPa, DSC

COC(=O)c1cccc(O)c1 [methyl 3-hydroxybenzoate]
Details	mass density [kg/m3]
[1], 298.15 K, 101.33 kPa, Pycnometric method	1230

Details	Molar enthalpy of transition or fusion [kcal/mol]	Normal melting temperature [°C]
[1]	–	71.10
[2]	4.81	–

[3], Crystal
Details	molar heat capacity at constant pressure [J/K/mol]
293.15 K	200.2
294.15 K	201.3
295.15 K	202.6
296.15 K	203.3
297.15 K	204.1
298.15 K	205
299.15 K	205.6
300.15 K	206.2
301.15 K	206.7
302.15 K	207.5
303.15 K	208.2
304.15 K	208.7
305.15 K	209.2
306.15 K	209.8
307.15 K	210.4
308.15 K	211
309.15 K	211.5
310.15 K	212
311.15 K	212.6
312.15 K	213.1

COC(=O)c1ccc(O)cc1 [methyl 4-hydroxybenzoate]
Details	Molar enthalpy of transition or fusion [kcal/mol]	Normal melting temperature [°C]
[1]	–	126
[2]	6.18	–

[3], Crystal
Details	molar heat capacity at constant pressure [J/K/mol]
293.15 K	209.8
294.15 K	211
295.15 K	212.2
296.15 K	212.8
297.15 K	213.6
298.15 K	214.4
299.15 K	215.2
300.15 K	215.7
301.15 K	216.2
302.15 K	217
303.15 K	217.8
304.15 K	218.4
305.15 K	218.9
306.15 K	219.3
307.15 K	220.1
308.15 K	220.6
309.15 K	221.2
310.15 K	221.7
311.15 K	222.4
312.15 K	222.8

COC(=O)c1ccccc1O [methyl 2-hydroxybenzoate]
Details	Molar enthalpy of transition or fusion [kcal/mol]	Normal melting temperature [°C]
[1]	–	-1.66
[2]	3.89	–

[3], Liquid
Details	molar heat capacity at constant pressure [J/K/mol]
293.15 K	240.4
294.15 K	241.6
295.15 K	242.5
296.15 K	243.3
297.15 K	243.9
298.15 K	244.3
299.15 K	244.8
300.15 K	245.2
301.15 K	245.6
302.15 K	246.1
303.15 K	246.6
304.15 K	246.9
305.15 K	247.1
306.15 K	247.4
307.15 K	247.8
308.15 K	248
309.15 K	248.3
310.15 K	248.6
311.15 K	249.1
312.15 K	249.4
